Measured values as given in paper PMC11558128 (Advanced Science, 2024).
Positions of bridges follow the written chain, without caps; N, C: chain ends. Residues, ends and D or L forms follow the SMILES beside them.

Columns and labels:
[1] = tested on: native Nav channels of rat primary cardiomyocytes; conditions: 5 µM; n = 5
ICR mice = assay: Forced swimming test; assay type: in vivo, mouse; conditions: 2 mg kg-1 i.p.; vs saline; n = 5, p = 0.8413
Experimental: Forced Swimming Test: ICR mice (weight 18–20 g, 6–8 weeks, both sex) were subjected to forced swimming training for 8 min per day over a span of 4 days. […] On the 5th day, the remaining mice were randomly assigned to one of two groups: Saline (3 males and 2 females) and the 2 mg kg^−1 mGpTx1‐SA (3 males and 2 females). All groups received intraperitoneal administration and were allowed 20 min for the drug to take effect before behavioral tests commenced. Swimming time was recorded for a duration of 4 min within a 6‐minute timeframe following drug administration.

CC[C@H](C)[C@@H]1NC(=O)[C@@H]2CSSC[C@@H]3NC(=O)[C@H](C(C)C)NC(=O)[C@H](CC(C)C)NC(=O)[C@H](CC(N)=O)NC(=O)[C@@H]4CCCN4C(=O)[C@H](CCCNC(=N)N)NC(=O)[C@H](CSSC[C@H](NC(=O)[C@@H](N)CC(=O)O)C(=O)N[C@@H](CC(C)C)C(=O)NCC(=O)N[C@@H](C)C(=O)N[C@@H](Cc4ccccc4)C(=O)N[C@@H](CCCNC(=N)N)C(=O)N[C@@H](CCCCN)C(=O)N2)NC(=O)[C@H](CSSC[C@@H](C(=O)N[C@@H](CCCCN)C(=O)N[C@@H](Cc2ccc(O)cc2)C(=O)N[C@H](C(=O)N[C@@H](Cc2ccccc2)C(N)=O)C(C)C)NC(=O)[C@H](Cc2c[nH]c4ccccc24)NC(=O)[C@H](CCCNC(=N)N)NC(=O)[C@H](Cc2c[nH]cn2)NC(=O)[C@H](C)NC(=O)[C@H](CO)NC(=O)[C@H](CO)NC3=O)NC(=O)[C@H](CCCCN)NC(=O)[C@H](CC(=O)O)NC(=O)[C@H](CC(N)=O)NC(=O)[C@H](CC(=O)O)NC(=O)[C@@H]2CCCN2C1=O [mGpTx1-SA] (H-DCLGAFRKCIPDNDKCCRPNLVCSSAHRWCKYVF-NH2; disulfide 2-17, 9-23, 16-30)
inhibition of Nav currents in the primary cardiomyocytes [1]: did not inhibit | time spent on swimming (ICR mice): did not affect
